Laboratory results published in patent publication US12071424B2, “IRE1 small molecule inhibitors” (Cornell University, priority 2017, dated 2024).
pEC50, pIC50: −log10 of the molar value.

Experiments:
IRE1a [1] = molecular target: T1, IRE1a (Homo sapiens, UniProt O75460); experiment: In vitro FRET assay (IRE1a cleavage of XBP1 RNA probe); format: biochemical; conditions: 2 nM SignalChem IRE1a, tested as Formic Acid Salt (37: HCl Salt)
T1 construct: purchased SignalChem
Procedure: In vitro FRET assay was performed to evaluate the ability of select compounds to inhibit IRE1, the results of which are summarized in Table 3. To perform the in vitro FRET assay, 1× complete assay buffer (CAB: […], 50 mM sodium citrate pH 7.15, 1 mM magnesium acetate, 0.02% tween 20) was used to SignalChem IRE1a protein to a final concentration of 2 nM. Selected compounds were serially diluted with DMSO in a non-binding black 384-well plate for a total of 15 ul in each well. 2 ul of the serially diluted compound or DMSO control were then added to new wells containing 98 ul of 1× CAB, for a total volume of 100 ul, 10 ul of which were then transferred to wells of a new plate. 5 ul of the diluted IRE1a was then added to each well. 5 ul of a […] XBP1 RNA probe was then added to each well. Fluorescence was then read over 30 minutes in kinetic mode (485/515 nm).
Two RNA probes were used, XBP1 wildtype (SEQ ID NO: 2) which is able to be spliced by active IRE1a or XBP1 mutant (SEQ ID NO: 3) which is unable to be spliced. Each probe contained a 5′ 6-FAM modification and a 3′ IOWA black FQ modification. […]

IRE1a [2] = experiment: IRE1a Endoribonuclease Nanoluciferase Assay (XBP1 luciferase reporter in 293T cells); format: cell-based, human; conditions: ER stressor, tested as Formic Acid Salt (37: HCl Salt)
Procedure: Compounds disclosed herein assessed for disruption of IRE1 signaling using a IRE1a Endoribonuclease Nanoluciferase Assay. Briefly, 25×10^5 293T cells were seeded in a 10 cm^2 tissue culture plate. About 24 hours later, the cells were transfected with Effectene. In a 15 mL tube, the following was added: 2 ug XBP1 luciferase reporter plasmid (PGK-Luc2-P2A-XBP1u-Nanoluciferase-Pest); 300 ul EC buffer; and 16 ul Enhancer, followed by incubation at room temp for 5 minutes. Next, 60 ul Effectene (Qiagen 301427) was added, followed by incubation at room temperature for 10 minutes. 2.6 mL cDMEM media was added. Old media was aspirated from the cells, followed by addition of 7 mL fresh media. Full transfection mixture was added dropwise to cells. Cells were incubated for 6 hours, followed by trypsinization, centrifugation and resuspension in 11 mL fresh cDMEM media. 100 uL of cells were plated per a well in a 96 well plate. A day later, ER stressors of choice +/−inhibitors were added. To harvest, media was aspirated from cells completely, then 50 uL 1× passive lysis buffer (Promega: E1941) was added per well and put on shaker (300 rpm) for 30 minutes at room temperature. Cells were centrifuged, and 15 uL sample per well was added to a new, opaque white 384 well plate (Corning 3570). 15 uL OneGlo (nanoluciferase kit, Promega N1630) was added. Plates were spun down, placed on shaker (300 rpm) for 10 minutes. Plates were read on luminometer, 1000 ms integration time per well. 15 uL Stop an Glo (nanoluciferase kit) was added. Plates were spun down, placed on shaker (300 rpm) for 10 minutes. Plates were read on luminometer, 1000 ms second integration time per well. Recordings are provided below in Table 4.

T1 sequence (O75460 19-977): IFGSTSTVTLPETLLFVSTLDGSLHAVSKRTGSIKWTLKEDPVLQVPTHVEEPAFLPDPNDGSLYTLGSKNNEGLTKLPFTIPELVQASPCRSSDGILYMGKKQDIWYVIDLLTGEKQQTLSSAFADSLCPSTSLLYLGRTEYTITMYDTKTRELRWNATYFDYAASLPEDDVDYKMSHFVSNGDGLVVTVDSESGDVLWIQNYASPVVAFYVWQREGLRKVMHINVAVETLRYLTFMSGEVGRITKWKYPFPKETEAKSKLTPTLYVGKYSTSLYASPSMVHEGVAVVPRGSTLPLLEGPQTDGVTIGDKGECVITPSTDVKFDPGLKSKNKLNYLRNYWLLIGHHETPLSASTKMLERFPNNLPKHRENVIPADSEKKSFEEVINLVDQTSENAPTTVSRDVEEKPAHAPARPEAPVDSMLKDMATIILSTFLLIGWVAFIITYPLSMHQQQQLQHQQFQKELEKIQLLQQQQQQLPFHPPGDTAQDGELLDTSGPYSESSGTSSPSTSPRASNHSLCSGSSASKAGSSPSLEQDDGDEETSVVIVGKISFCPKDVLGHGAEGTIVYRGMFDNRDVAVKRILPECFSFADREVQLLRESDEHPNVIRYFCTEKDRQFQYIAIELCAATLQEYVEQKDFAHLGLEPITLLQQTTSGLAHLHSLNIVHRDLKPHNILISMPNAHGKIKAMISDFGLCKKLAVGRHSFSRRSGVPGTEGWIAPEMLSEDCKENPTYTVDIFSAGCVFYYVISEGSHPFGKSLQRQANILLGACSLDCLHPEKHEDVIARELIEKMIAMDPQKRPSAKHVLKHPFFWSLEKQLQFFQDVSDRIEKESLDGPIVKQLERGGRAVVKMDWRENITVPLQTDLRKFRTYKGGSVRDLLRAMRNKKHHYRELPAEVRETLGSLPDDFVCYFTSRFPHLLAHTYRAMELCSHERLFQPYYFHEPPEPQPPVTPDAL

pIC50 (IRE1a [1])	pEC50 (IRE1a [2]; Homo sapiens, HEK-293T)	pEC50 (IRE1a [2])	Compound
≥ 8.30	7.30 to 8.30	–	N[C@@H]1CC[C@@H](Nc2ncc3cc(-c4ccc(NS(=O)(=O)c5ccccc5Cl)c(F)c4)ccc3n2)C1 [Compound 77, N-(4-(2-(((1R,3R)-3-aminocyclopentyl)amino)quinazolin-6-yl)-2-fluorophenyl)-2-chlorobenzene-sulfonamide]
≥ 8.30	≥ 8.30	–	CCc1cc(-c2ccc(NS(=O)(=O)c3ccccc3Cl)c(F)c2)cc2cnc(N[C@@H]3CC[C@@H](N)C3)nc12 [Compound 78, N-(4-(2-(((1R,3R)-3-aminocyclopentyl)amino)-8-ethylquinazolin-6-yl)-2-fluorophenyl)-2-chlorobenzene-sulfonamide]
≥ 8.30	7.30 to 8.30	–	CCc1cc(-c2ccc(NS(=O)(=O)c3ccccc3Cl)c(F)c2)cc2cnc(N[C@@H]3CC[C@H](N)C3)nc12 [Compound 79, N-(4-(2-(((1R,3S)-3-aminocyclopentyl)amino)-8-ethylquinazolin-6-yl)-2-fluorophenyl)-2-chlorobenzene-sulfonamide]
≥ 8.30	–	7.30 to 8.30	CCc1cc(-c2ccc(NS(=O)(=O)c3ccccc3Cl)c(F)c2)cc2cnc(N[C@H]3CC4C[C@H](N)CC4C3)nc12 (stereo partly shown) [Compound 82, N-(4-(2-((4-5-aminooctahydro-pentalen-2-yl)amino)-8-ethylquinazolin-6-yl)-2-fluorophenyl)-2-chlorobenzene-sulfonamide]
7.30 to 8.30	–	7.00 to 7.30	CCc1cc(-c2ccc(NS(=O)(=O)c3ccccc3Cl)c(F)c2)cc2cnc(N[C@H]3CC4C[C@H](N)CC4C3)nc12 (stereo partly shown) [Compound 83]
≥ 8.30	7.30 to 8.30	–	CCc1cc(-c2ccc(NS(=O)(=O)c3ccccc3Cl)c(F)c2)cc2cnc(N[C@H]3CC4C[C@@H](N)CC4C3)nc12 (stereo partly shown) [Compound 84]
≥ 8.30	≥ 8.30	–	CCc1cc(-c2ccc(NS(=O)(=O)c3ccccc3Cl)c(F)c2)cc2cnc(NC34CCC(N)(CC3)CC4)nc12 [Compound 87, N-(4-(2-((4-aminobicyclo[2.2.2]octan-1-yl)amino)-8-ethylquinazolin-6-yl)-2-fluorophenyl)-2-chlorobenzene-sulfonamide]
≥ 8.30	≥ 8.30	–	CCc1cc(-c2ccc(NS(=O)(=O)c3ccccc3Cl)c(F)c2)cc2cnc(N[C@H]3CC[C@H](N4CCCC4)CC3)nc12 [Compound 88, 2-chloro-N-(4-(8-ethyl-2-(((1r,4r)-4-(pyrrolidin-1-yl)cyclohexyl)amino)quinazolin-6-yl)-2-fluorophenyl) benzenesulfon-amide]
≥ 8.30	7.30 to 8.30	–	Cc1cc2nc(N[C@H]3CC[C@H](N)CC3)ncc2cc1-c1ccc(NS(=O)(=O)c2ccccc2Cl)c(F)c1 [Compound 90, N-(4-(2-(((1r,4r)-4-aminocyclohexyl)amino)-7-methylquinazolin-6-yl)-2-fluorophenyl)-2-chlorobenzene-sulfonamide]

More lines, now with the values behind:

Compound	pIC50 (IRE1a [1])	pEC50 (IRE1a [2]; Homo sapiens, HEK-293T)	pEC50 (IRE1a [2])
O=S(=O)(Nc1ccc(-c2ccc3nc(N[C@H]4CCCNC4)ncc3c2)cc1F)c1ccccc1Cl [Compound 76, (S)-2-chloro-N-(2-fluoro-4-(2-(piperdin-3-ylamino)quinazolin-6-yl)phenyl) benzenesulfon-amide]	≥ 8.30	7.30 to 8.30	–
NC12CCC(Nc3ncc4cc(-c5ccc(NS(=O)(=O)c6ccccc6Cl)c(F)c5)ccc4n3)(CC1)CC2 [Compound 81, N-(4-(2-((4-aminobicyclo[2.2.2]octan-1-yl)amino)quinazolin-6-yl)-2 fluorophenyl)-2-chlorobenzene-sulfonamide]	≥ 8.30	≥ 8.30	–
N[C@H]1CC2C[C@@H](Nc3ncc4cc(-c5ccc(NS(=O)(=O)c6ccccc6Cl)c(F)c5)ccc4n3)CC2C1 (stereo partly shown) [Compound 85, N-(4-(2-(((2s,5s)-5-aminooctahydro-pentalen-2-yl)amino)quinazolin-6-yl)-2-fluorophenyl)-2-chlorobenzene-sulfonamide]	≥ 8.30	5.00 to 7.00	–
NC12CCC(Nc3ncc4cc(-c5ccc(NS(=O)(=O)c6ccccc6Cl)c(F)c5)ccc4n3)(CC1)C2 [Compound 86]	≥ 8.30	7.00 to 7.30	–
N[C@H]1CC[C@H](Nc2ncc3cc(-c4nnc(NS(=O)(=O)c5ccccc5Cl)s4)ccc3n2)CC1 [Compound 89, N-(5-(2-(((1r,4r)-4-aminocyclohexyl)amino)quinazolin-6-yl)-1,3,4-thiadiazol-2-yl)-2-chlorobenzene-sulfonamide]	≥ 8.30	5.00 to 7.00	–
CCc1cc(-c2cnc(NS(=O)(=O)c3ccccc3Cl)cc2OC)cc2cnc(N[C@H]3CC[C@H](N)CC3)nc12 [Compound 92, N-(5-(2-(((1r,4r)-4-aminocyclohexyl)amino)-8-ethylquinazolin-6-yl)-4-methoxypyridin-2-yl)-2-chlorobenzene-sulfonamide]	≥ 8.30	5.00 to 7.00	–
CCc1cc(-c2cnc(NS(=O)(=O)c3ccccc3Cl)c(F)c2)cc2cnc(N[C@H]3CC[C@H](N(C)C)CC3)nc12 [Compound 95, 2-chloro-N-(5-(2-(((1r,4r)-4-(dimethylamino)cyclohexyl)amino)-8-ethylquinazolin-6-yl)-3-fluoropyridin-2-yl)benzenesulfonamide]	≥ 8.30	≥ 8.30	–
CCc1cc(-c2cc(F)c(NS(=O)(=O)c3ccccc3Cl)nc2C)cc2cnc(N[C@H]3CC[C@H](N(C)C)CC3)nc12 [Compound 97, 2-chloro-N-(5-(2-(((1r,4r)-4-(dimethylamino)cyclohexyl)amino)-8-ethylquinazolin-6-yl)-3-fluoro-6-methylpyridin-2-yl)benzenesulfonamide]	≥ 8.30	≥ 8.30	–
CCc1cc(-c2ncc(NS(=O)(=O)c3ccccc3Cl)nc2OC)cc2cnc(N[C@H]3CC[C@H](N)CC3)nc12 [Compound 98, N-(5-(2-(((1r,4r)-4-aminocyclohexyl)amino)-8-ethylquinazolin-6-yl)-6-methoxypyrazin-2-yl)-2-chlorobenzenesulfonamide]	≥ 8.30	≥ 8.30	–
CCc1cc(-c2ccc(NS(=O)(=O)c3ccccc3Cl)nc2OC)cc2cnc(N[C@H]3CC[C@H](N(C)C)CC3)nc12 [Compound 99, 2-chloro-N-(5-(2-(((1r,4r)-4-(dimethylamino)cyclohexyl)amino)-8-ethylquinazolin-6-yl)-6-methoxypyridin-2-yl)benzenesulfonamide]	≥ 8.30	≥ 8.30	–
COc1nc(NS(=O)(=O)c2ccccc2Cl)ccc1-c1cc2cnc(N[C@H]3CC[C@H](N(C)C)CC3)nc2cc1C [Compound 108, 2-chloro-N-(5-(2-(((1r,4r)-4-(dimethylamino)cyclohexyl)amino)-7-methylquinazolin-6-yl)-6-methoxypyridin-2-yl)benzenesulfonamide]	≥ 8.30	≥ 8.30	–
CCc1cc(-c2ccc(NS(=O)(=O)c3ccccc3Cl)nc2OC)cc2cnc(N[C@H]3CC[C@H](NC)CC3)nc12 [Compound 116, 2-chloro-N-(5-(8-ethyl-2-(((1r,4r)-4-(methylamino)cyclohexyl)amino)quinazolin-6-yl)-6-methoxypyridin-2-yl)benzenesulfonamide]	≥ 8.30	≥ 8.30	–
CCc1nc(NS(=O)(=O)c2ccccc2Cl)ccc1-c1cc(CC)c2nc(N[C@H]3CC[C@H](N(C)C)CC3)ncc2c1 [Compound 117, 2-chloro-N-(5-(2-(((1r,4r)-4-(dimethylamino)cyclohexyl)amino)-8-ethylquinazolin-6-yl)-6-ethylpyridin-2-yl)benzenesulfonamide]	≥ 8.30	≥ 8.30	–
CCc1cc(-c2ccc(NS(=O)(=O)c3ccccc3C)nc2OC)cc2cnc(N[C@H]3CC[C@H](NC)CC3)nc12 [Compound 118, N-(5-(8-ethyl-2-(((1r,4r)-4-(methylamino)cyclohexyl)amino)quinazolin-6-yl)-6-methoxypyridin-2-yl)-2-methylbenzenesulfonamide]	≥ 8.30	≥ 8.30	–
